Test results taken from patent publication US20210161894A1, “Compositions and Methods for Modulating Liver Endothelial Cell Fenestrations” (priority 2017, published 2021).

Assays:
fenestrations [1] = settings: young (7 month) and old (24 month) mice; cited from earlier work
fenestrations [2] = settings: young mice; cited from earlier work
LSEC fenestrations = experiment: SEM of LSEC fenestrations after drug treatments (Example 2, FIGS. 1-6); type: cell-based, mice
Procedure, shortened: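 Liver cells from young (3-4) and old (20-24 months) C57B16 mice, n=3 each, incubated 30 mins at 37° C, 5% CO2 in RPMI with or without drug; livers perfusion-fixed in 1% glutaraldehyde/4% para-formaldehyde. Blinded SEM at 10,000×; values are mean±SD of 8 images, 616-3312 fenestrations per treatment.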

[3] = system: isolated LSECs (liver sinusoidal endothelial cells); experiment: SEM of fenestrations in isolated LSECs from young and old mice after 30 min drug treatment (second Example 7); type: cell-based; settings: for Diameter / Frequency / Porosity: 30 min

COc1cc(CC(C)N)c(OC)cc1I (stereo not shown) [DOI, 2,5-Dimethoxy-4-iodoamphetamine]
fenestrations after in vivo administration (fenestrations [1]): increased fenestrations only in young (7 month) but not old (24 month) mice
fenestration porosity and diameter (previously reported) (fenestrations [2]): increase fenestration porosity in young mice without any significant effects on fenestration diameter
change in fenestration porosity (LSEC fenestrations; old mice, Cytochalasin D 0.5 μg/ml, DOI 0.1 μg/ml, 7KC 9 μM, Amlodipine 20 ng/ml): increased porosity
change in fenestration frequency (LSEC fenestrations; old mice, Cytochalasin D 0.5 μg/ml, DOI 0.1 μg/ml, 7KC 9 μM, Bosentan 0.1 μM, Sildenafil 300 ng/ml, Amlodipine 20 ng/ml): increased
sieve plates and fenestration density on SEM images (LSEC fenestrations; young and old mice): maintained sieve plates and increased fenestration density
Change in Frequency, Old ([3]; old mice, 0.1 μg/ml): ↑ (ns)
Diameter ([3]; old mice, 0.1 μg/ml): 135.27 ± 29.71 nm
Frequency ([3]; old mice, 0.1 μg/ml): 3.06 ± 1.00 no/area
Porosity ([3]; old mice, 0.1 μg/ml): 4.44 ± 1.07 %
Diameter ([3]; old mice, 1 μg/ml): 155.28 ± 15.33 nm
Frequency ([3]; old mice, 1 μg/ml): 0.67 ± 0.31 no/area
Porosity ([3]; old mice, 1 μg/ml): 1.31 ± 0.47%
effect on porosity and fenestration frequency (summary in words) ([3]; young and old LSECs): LSECs from old mice only were responsive
Diameter ([3]; young mice, 0.1 μg/ml): 133.57 ± 9.78 nm
Frequency ([3]; young mice, 0.1 μg/ml): 3.40 ± 1.56 no/area
Porosity ([3]; young mice, 0.1 μg/ml): 4.91 ± 2.02%
Diameter ([3]; young mice, 1 μg/ml): 135.64 ± 21.21 nm
Frequency ([3]; young mice, 1 μg/ml): 0.83 ± 0.75 no/area
Porosity ([3]; young mice, 1 μg/ml): 1.45 ± 1.27%
